pIC50, pKi: −log10 of the molar value.
Tests used:
[1] = AUC (0 to 7 hrs) in Sprague-Dawley rat at 1 mg/kg, iv by LC-MS/MS analysis; assay type: ADME, organism-based; design: dose 1 mg/kg, time < 7 hr, route intravenous; details: in vivo
[2] = Clearance in Sprague-Dawley rat at 1 mg/kg, iv by LC-MS/MS analysis; assay type: ADME, organism-based; details: in vivo
[3] = Volume of distribution at steady state in Sprague-Dawley rat at 1 mg/kg, iv by LC-MS/MS analysis; assay type: ADME, organism-based; details: in vivo, read-out: Vdss
[4] = Half life in Sprague-Dawley rat at 1 mg/kg, iv by LC-MS/MS analysis; assay type: ADME, organism-based; details: in vivo
[5] = AUC (0 to 7 hrs) in Sprague-Dawley rat at 5 mg/kg, po by LC-MS/MS analysis; assay type: ADME, organism-based; design: dose 5 mg/kg, time < 7 hr, route oral; details: in vivo
[6] = Tmax in Sprague-Dawley rat at 5 mg/kg, po by LC-MS/MS analysis; assay type: ADME, organism-based; details: in vivo
[7] = Oral bioavailability in Sprague-Dawley rat at 5 mg/kg by LC-MS/MS analysis; assay type: ADME, organism-based; details: in vivo
[8] = Metabolic stability in human microsomes assessed as parent compound remaining after 0 mins; assay type: ADME, Microsome; details: read-out: Stability
[9] = Metabolic stability in rat microsomes assessed as parent compound remaining after 0 mins; assay type: ADME, Microsome; details: read-out: Stability
[10] = Metabolic stability in human microsomes assessed as parent compound remaining after 5 mins; assay type: ADME, Microsome; details: read-out: Stability
[11] = Metabolic stability in rat microsomes assessed as parent compound remaining after 5 mins; assay type: ADME, Microsome; details: read-out: Stability
[12] = Metabolic stability in human microsomes assessed as parent compound remaining after 15 mins; assay type: ADME, Microsome; details: read-out: Stability
[13] = Metabolic stability in rat microsomes assessed as parent compound remaining after 15 mins; assay type: ADME, Microsome; details: read-out: Stability
[14] = Metabolic stability in human microsomes assessed as parent compound remaining after 30 mins; assay type: ADME, Microsome; details: read-out: Stability
[15] = Metabolic stability in rat microsomes assessed as parent compound remaining after 30 mins; assay type: ADME, Microsome; details: read-out: Stability
[16] = Metabolic stability in human microsomes assessed as parent compound remaining after 45 mins; assay type: ADME, Microsome; details: read-out: Stability
[17] = Metabolic stability in rat microsomes assessed as parent compound remaining after 45 mins; assay type: ADME, Microsome; details: read-out: Stability
[18] = Clearance in human; assay type: ADME
[19] = Half life in rat microsomes; details: in vitro
[20] = Clearance in rat microsomes; details: in vitro
[21] = biological target: Cyclin-dependent kinase 1 (Homo sapiens, UniProt P06493)
Description: Inhibition of CDK1 (unknown origin)

CDK2/Cyclin A2 = CDK2/Cyclin A2 (Homo sapiens, UniProt P24941); assay: Inhibition of CDK2/CyclinA (unknown origin) assessed as reduction in TAMRA tagged peptide substrate phosphorylation by fluorescence polarization assay; assay type: protein-complex assay
[22] = Tmax in human; assay type: ADME
[23] = Protein binding in human plasma; assay type: ADME, cell-free; details: read-out: PPB (converted)
[24] = biological target: Homeodomain-interacting protein kinase 1 (Homo sapiens, UniProt Q86Z02); assay: Inhibition of wild-type human partial length HIPK1 (M146 to I555 residues) expressed in mammalian expression system assessed as residual activity at 50 nM by Kinomescan method relative to control
[25] = biological target: Calcium/calmodulin-dependent protein kinase type 1 (Homo sapiens, UniProt Q14012); assay: Inhibition of wild-type human full length CAMK1A (M1 to L370 residues) expressed in bacterial expression system assessed as residual activity at 50 nM by Kinomescan method relative to control
[26] = Oral bioavailability in human at 125 mg; assay type: ADME, organism-based; details: in vivo
[27] = Tmax in human at 125 mg, po; assay type: ADME; details: in vivo
[28] = Protein binding in human plasma at 125 mg, po; assay type: ADME, cell-free; details: read-out: PPB (converted)

Cyclin-dependent kinase 1, sequence (P06493 whole entry): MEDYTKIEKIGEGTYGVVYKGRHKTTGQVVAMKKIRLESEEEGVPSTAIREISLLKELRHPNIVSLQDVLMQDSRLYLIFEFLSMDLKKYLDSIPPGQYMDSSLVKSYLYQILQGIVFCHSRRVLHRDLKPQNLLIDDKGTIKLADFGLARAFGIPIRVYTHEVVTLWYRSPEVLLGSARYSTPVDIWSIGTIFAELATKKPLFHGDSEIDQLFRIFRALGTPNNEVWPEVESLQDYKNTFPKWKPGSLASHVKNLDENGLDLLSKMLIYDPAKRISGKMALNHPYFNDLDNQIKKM
Calcium/calmodulin-dependent protein kinase type 1, sequence (Q14012 whole entry, the tested form may be a part): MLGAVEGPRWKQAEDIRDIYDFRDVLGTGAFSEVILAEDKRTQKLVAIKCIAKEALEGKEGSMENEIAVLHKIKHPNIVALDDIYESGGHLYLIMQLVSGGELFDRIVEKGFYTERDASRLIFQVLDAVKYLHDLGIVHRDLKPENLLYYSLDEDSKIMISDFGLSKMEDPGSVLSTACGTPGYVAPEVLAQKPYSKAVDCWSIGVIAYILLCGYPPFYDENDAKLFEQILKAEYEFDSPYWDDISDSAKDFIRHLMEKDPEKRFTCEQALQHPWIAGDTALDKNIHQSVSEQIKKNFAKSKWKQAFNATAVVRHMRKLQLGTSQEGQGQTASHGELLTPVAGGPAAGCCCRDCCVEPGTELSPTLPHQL
Homeodomain-interacting protein kinase 1, sequence (Q86Z02 whole entry, the tested form may be a part): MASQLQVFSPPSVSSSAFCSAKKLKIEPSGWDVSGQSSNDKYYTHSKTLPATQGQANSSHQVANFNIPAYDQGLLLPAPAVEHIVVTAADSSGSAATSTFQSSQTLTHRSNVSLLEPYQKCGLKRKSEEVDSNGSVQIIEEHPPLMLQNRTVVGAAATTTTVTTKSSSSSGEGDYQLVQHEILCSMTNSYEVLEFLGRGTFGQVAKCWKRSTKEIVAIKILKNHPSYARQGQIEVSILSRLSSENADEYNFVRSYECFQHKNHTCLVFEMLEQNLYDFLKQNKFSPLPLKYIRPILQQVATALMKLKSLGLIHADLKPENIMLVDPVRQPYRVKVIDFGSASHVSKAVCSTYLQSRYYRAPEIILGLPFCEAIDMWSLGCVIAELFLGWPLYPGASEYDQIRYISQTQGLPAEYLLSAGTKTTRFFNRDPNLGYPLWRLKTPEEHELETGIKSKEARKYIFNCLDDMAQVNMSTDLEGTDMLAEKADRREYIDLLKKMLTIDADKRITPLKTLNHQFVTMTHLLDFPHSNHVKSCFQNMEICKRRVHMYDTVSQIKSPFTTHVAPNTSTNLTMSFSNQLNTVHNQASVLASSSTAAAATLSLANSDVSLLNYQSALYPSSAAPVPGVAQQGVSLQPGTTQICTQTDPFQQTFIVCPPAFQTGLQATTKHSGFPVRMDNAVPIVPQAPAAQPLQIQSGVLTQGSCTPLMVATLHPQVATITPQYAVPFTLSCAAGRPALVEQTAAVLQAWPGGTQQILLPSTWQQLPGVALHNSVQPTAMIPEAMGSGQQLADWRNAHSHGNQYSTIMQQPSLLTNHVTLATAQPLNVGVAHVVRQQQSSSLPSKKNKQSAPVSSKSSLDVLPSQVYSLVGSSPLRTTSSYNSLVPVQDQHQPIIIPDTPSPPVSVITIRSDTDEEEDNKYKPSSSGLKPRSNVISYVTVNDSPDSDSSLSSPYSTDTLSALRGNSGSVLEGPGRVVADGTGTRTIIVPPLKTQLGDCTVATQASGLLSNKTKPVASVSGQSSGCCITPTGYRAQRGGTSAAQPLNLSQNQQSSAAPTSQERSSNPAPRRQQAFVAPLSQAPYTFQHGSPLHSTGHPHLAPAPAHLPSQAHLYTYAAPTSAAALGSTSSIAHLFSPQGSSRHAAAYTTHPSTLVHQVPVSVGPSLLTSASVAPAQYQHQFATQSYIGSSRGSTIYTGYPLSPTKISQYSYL

Row | remaining at 0 h [8] [%] | remaining at 0 h [9] [%] | remaining at 5 min [10] [%] | remaining at 5 min [11] [%] | remaining at 0.25 h [12] [%] | remaining at 0.25 h [13] [%] | remaining at 0.5 h [14] [%] | remaining at 0.5 h [15] [%] | remaining at 0.75 h [16] [%] | remaining at 0.75 h [17] [%] | clearance [18] [mL/min/kg] | half-life [19] [h] | clearance [20] [mL/min/kg] | SMILES | further results
1 | – | – | – | – | – | – | – | – | – | – | – | – | – | [2H]C([2H])([2H])N(C(=O)c1cc2cnc(Nc3ccc(N4CCNCC4)cn3)nc2n1C1CCCC1)C([2H])([2H])[2H] | AUC ([1]; 7 h): 0.883 µM·h; clearance [2]: 37 mL/min/kg; Vd [3]: 8.6 L/kg; half-life [4]: 3.2 h; AUC [5]: 5.432 µM·h; Tmax [6]: 2 h; F [7]: 55%
2 | 100 | 100 | 80.3 | 92.2 | 47.9 | 86 | 21.3 | 69.9 | 9.86 | 57.6 | 130 | 0.956 | 43.3 | [2H]C([2H])([2H])C([2H])([2H])N1C([2H])([2H])C([2H])([2H])N(Cc2ccc(Nc3ncc(F)c(-c4cc(F)c5nc(C)n(C(C)C)c5c4)n3)nc2)C([2H])([2H])C1([2H])[2H] | –
3 | 100 | 100 | 79.4 | 92.7 | 43.3 | 83 | 16.4 | 65.9 | 6.48 | 51.3 | 155 | 0.785 | 52.7 | [2H]c1nc(Nc2ncc(F)c(-c3cc(F)c4nc(C)n(C(C)C)c4c3)n2)c([2H])c([2H])c1CN1CCN(C([2H])([2H])C([2H])([2H])[2H])CC1 | –
4 | 100 | 100 | 77.7 | 93.8 | 42.4 | 83.4 | 16 | 66.9 | 6.21 | 51.3 | 156 | 0.784 | 52.8 | [2H]C([2H])([2H])C([2H])([2H])N1CCN(Cc2ccc(Nc3ncc(F)c(-c4cc(F)c5nc(C)n(C(C)C)c5c4)n3)nc2)CC1 | –
5 | – | – | – | – | – | – | – | – | – | – | – | – | – | CN(C)C(=O)c1cc2cnc(Nc3ccc(N4CCNCC4)cc3)nc2n1C1CCCC1 | pIC50 [21]: < 5.80; pIC50 (CDK2/Cyclin A2): < 5.85
6 | 100 | 100 | 76.1 | 94.1 | 38.9 | 81 | 13 | 61.6 | 4.76 | 45.6 | 172 | 0.658 | 62.9 | CCN1CCN(Cc2ccc(Nc3ncc(F)c(-c4cc(F)c5nc(C)n(C(C)C)c5c4)n3)nc2)CC1 [ABEMACICLIB] | Tmax [22]: 4 to 24 h; fraction unbound [23]: 0.04; pKi [24]: > 8.00; pKi [25]: > 8.00
7 | – | – | – | – | – | – | – | – | – | – | – | – | – | CC(=O)c1c(C)c2cnc(Nc3ccc(N4CCNCC4)cn3)nc2n(C2CCCC2)c1=O [PALBOCICLIB] | bioavailability [26]: 46%; Tmax [27]: 6 to 12 h; fraction unbound [28]: 0.15
8 | – | – | – | – | – | – | – | – | – | – | – | – | – | CN(C)C(=O)c1cc2cnc(Nc3ccc(N4CCNCC4)cn3)nc2n1C1CCCC1 [RIBOCICLIB] | Tmax [22]: 1 to 4 h; fraction unbound [23]: 0.3; AUC(0-t) at 7 h ([1]; Sprague-Dawley): 1.03 µM·h; half-life [4]: 2.3 h; AUC [5]: 1.618 µM·h; Tmax [6]: 1.5 h

Reference: ChEMBL document CHEMBL4346699 (Eur J Med Chem, 2019)
